According to US12509451B2, “Heteroaryl amide inhibitors of CD38” (NAPA THERAPEUTICS LTD., priority 2020, dated 2025):

Tests used:
[1] = target: T1, recombinant human CD38 Protein (Homo sapiens, UniProt P28907); assay: Fluorescence-based NAD+ cyclase activity assay with human recombinant CD38 protein (Assay 2); assay type: biochemical; conditions: read-out: Assay 2 Arithmetic mean IC50
T1 construct: purchased R&D System
T1 sequence (P28907 1-300): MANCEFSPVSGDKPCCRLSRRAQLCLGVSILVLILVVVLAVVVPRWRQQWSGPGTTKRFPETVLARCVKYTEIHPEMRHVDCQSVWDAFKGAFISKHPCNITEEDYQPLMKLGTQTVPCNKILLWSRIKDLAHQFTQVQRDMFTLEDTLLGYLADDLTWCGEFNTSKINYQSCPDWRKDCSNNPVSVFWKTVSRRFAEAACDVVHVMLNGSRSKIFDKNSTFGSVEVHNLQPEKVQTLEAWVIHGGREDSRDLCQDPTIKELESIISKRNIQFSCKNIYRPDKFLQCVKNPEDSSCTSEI
Protocol: This protocol was modified from the de Oliveira et al., 2018 reference, supra.
NAD+ cyclase activity of the human recombinant CD38 protein treated with test compounds was measured using a fluorescence-based assay. Briefly, recombinant human CD38 Protein (R&D System) was resuspended in 44 μl/well of Sucrose-Tris Buffer (Sucrose 0.25 M, Tris pH 7.4 40 mM) and plated in a 96-well black plate (CORNING) at a density of 125 ng/well.
Each test compound was received in a powder state and dissolved in DMSO as a 25 mM stock solution. Each test compound was serially diluted in order to generate a dose-response curve. The dilution series of each test compound in DMSO was prepared at 50 times the concentrations to be assayed. Each test compound was diluted to generate a 5-fold dilution series of 8 concentrations from 100 μM to 32 nM in order to assay 8 final concentrations ranging from 2 μM to 0.64 nM. One μl of the 50× concentration compound series was added to each well of the plate containing 125 ng of protein in Sucrose-Tris buffer.
The reaction was started adding nicotinamide guanine dinucleotide (NGD+) (Sigma Aldrich) to reach a final concentration of 150 µM. The samples were excited at 337-15 nm, and the emission of fluorescence was measured at 442-20 nm at 37° C. every minute for 1 hr in a Clariostar microplate reader (BMG LABTECH). NAD+ cyclase activity was calculated as the slope of the linear portion of the fluorescence-time curve using the MARS data analysis software (BMG LABTECH). The data were uploaded in the Collaborative Drug Design (CDD) Software, and for each compound the IC50 was calculated by the software. For each plate, the z-factor was also calculated as a plate quality using the CDD software.

[2] = target: T2, recombinant mouse CD38 Protein (Mus musculus, UniProt P56528); assay: Fluorescence-based NAD+ hydrolase activity assay with mouse recombinant CD38 protein (Assay 5); assay type: biochemical; conditions: read-out: Assay 5 Arithmetic mean IC50
T2 construct: purchased R&D System
T2 sequence (P56528 1-304): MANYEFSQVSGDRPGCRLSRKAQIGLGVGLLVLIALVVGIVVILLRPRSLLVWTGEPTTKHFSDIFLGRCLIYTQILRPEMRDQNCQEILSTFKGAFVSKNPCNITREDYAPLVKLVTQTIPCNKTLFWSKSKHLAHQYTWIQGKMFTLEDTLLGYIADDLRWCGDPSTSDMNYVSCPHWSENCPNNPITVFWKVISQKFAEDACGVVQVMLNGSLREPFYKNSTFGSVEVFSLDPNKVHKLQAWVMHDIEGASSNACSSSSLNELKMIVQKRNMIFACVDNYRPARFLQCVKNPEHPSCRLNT
Method in brief: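 Recombinant mouse CD38 (2.5 ng/well) in 0.25 M sucrose, 40 mM Tris pH 7.4, with compound at 8 final concentrations from 400 nM to 25.6 pM; reaction started with 80 µM etheno-NAD+. Fluorescence (ex 321, em 410 nm) read each minute for 1 h at 37 °C; activity as linear slope, IC50 from 3 independent experiments.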

SMILES | IC50 [1] [µM] | IC50 [2] [µM]
Cn1cncc1-c1cccc(C(=O)Nc2ccc(C(F)(F)F)nc2)n1 [Compound 43] | 0.051 to 1 | 0.001 to 0.05
NC(=O)c1ccc(NC(=O)c2cccc(-n3ccnc3)n2)cn1 [Compound 3] | 0.001 to 0.05 | 0.001 to 0.05
Cc1cc(C(=O)Nc2ccncc2)nc(-c2nccn2C)c1 [Compound 45] | 0.051 to 1 | < 0.001
Cc1cc(NC(=O)c2cccc(-n3ccnc3)n2)cc(C)n1 [Compound 7] | 1 to 10 | < 0.001
O=C(Nc1ccncc1)c1cccc(-n2ccnc2)n1 [Compound 13] | 0.051 to 1 | 0.001 to 0.05

Results, then the compound that gave them:

IC50 [1] [µM] | IC50 [2] [µM] | SMILES
0.001 to 0.05 | < 0.001 | COCCOc1cc(C(=O)Nc2ccnc(C(F)(F)F)c2)nc(-n2ccnc2)n1 [Compound 39, 2-(1H-imidazol-1-yl)-6-(2-methoxyethoxy)-N-(2-(trifluoromethyl)pyridin-4-yl)pyrimidine-4-carboxamide]
1 to 10 | 0.001 to 0.05 | O=C(Nc1cccnc1)c1nc(-n2ccnc2)ccc1F [Compound 62]
0.051 to 1 | < 0.001 | CCOc1cc(C(=O)Nc2ccnc(C(F)(F)F)c2)nc(-n2ccnc2)n1 [Compound 38]
0.051 to 1 | 0.001 to 0.05 | Nc1cc(C(=O)Nc2cccnc2)nc(-n2ccnc2)c1 [Compound 67]
0.051 to 1 | 0.001 to 0.05 | CC(=O)Nc1ccc(NC(=O)c2cccc(-n3ccnc3)n2)cn1 [Compound 16]
1 to 10 | 0.001 to 0.05 | O=C(Nc1ccc(F)nc1)c1cccc(-n2ccnc2)n1 [Compound 22]
